Source: US6562867B2, “Carbamate compounds for use in preventing or treating bipolar disorder” (Ortho-McNeil Pharmaceutical, Inc., priority 2001, dated 2003)

Columns and labels:
hippocampal kindled rats = assay: Hippocampal kindled rat model; format: in vivo, Sprague-Dawley rats; settings: for # Protected/# Tested / Afterdischarge Duration (sec) ± S.E.M. / Seizure Score ± S.E.M.: time of test 15 min; for Seizure Score ± S.E.M.: stages 1-5
Method: In the hippocampal kindling model (Lothman E W, et al., Epilepsy Res., 1988, 2(6) 367-79), adult male Sprague-Dawley rats are surgically implanted with bipolar electrodes. Seizure score was assessed using the following stages: (1) mouth and facial movements; (2) above symptoms plus head nodding; (3) above symptoms plus forelimb clonus;(4) above symptoms plus rearing; and (5) above symptoms plus falling.

[1] = tested on: electrically kindled rats (Stage 5 seizures); assay: Electrically kindled rat model (corneal electrodes); format: in vivo, Wistar rats; settings: one hour after administration; for % Protection: 100% minus % Seizure Activity
Text: A similar effect for the enantiomer of Formula (Ib) was also found in the electrically kindled rat model (Racine R., J. Clin. Neurophysiol., 1972, 32, 281-294), an alternative model of kindling. Electrical stimulation through corneal electrodes induces a progression of behavioral seizures similar to those observed in hippocampal kindling.
Adult male Wistar rats were electrically kindled for 4 seconds (8 mA; 60 Hz) via corneal electrodes for a minimum of Stage 5 seizures.
One hour after oral administration, % Seizure Activity was assessed as a combined score of seizure activity for each animal for the total number of animals per group; % Protection is derived by subtracting % Seizure Activity om 100%.

In the case of `NC(=O)OC[C@@H](O)c1ccccc1Cl` [Formula (Ib)], the “# Protected/# Tested” value (hippocampal kindled rats; 12.5 mg/kg intraperitoneally) is reported as 2/7, the “Afterdischarge Duration (sec) ± S.E.M.” value (hippocampal kindled rats; 12.5 mg/kg intraperitoneally) is reported as 52.00 ± 10.88 s and the “Seizure Score ± S.E.M.” value (hippocampal kindled rats; 12.5 mg/kg intraperitoneally) is reported as 3.43 ± 0.53. The “# Protected/# Tested” value (hippocampal kindled rats; 25 mg/kg intraperitoneally) was 4/7, the “Afterdischarge Duration (sec) ± S.E.M.” value (hippocampal kindled rats; 25 mg/kg intraperitoneally) was 38.29 ± 13.48 s and the “Seizure Score ± S.E.M.” value (hippocampal kindled rats; 25 mg/kg intraperitoneally) was 2.29 ± 0.78. The “# Protected/# Tested” value (hippocampal kindled rats; 37.5 mg/kg intraperitoneally) was 5/7, the “Afterdischarge Duration (sec) ± S.E.M.” value (hippocampal kindled rats; 37.5 mg/kg intraperitoneally) was 38.00 ± 11.87 s and the “Seizure Score ± S.E.M.” value (hippocampal kindled rats; 37.5 mg/kg intraperitoneally) was 2.29 ± 0.75. For the same molecule, the ED50 (hippocampal kindled rats; Rattus norvegicus, ip, intraperitoneally, 95% confidence interval of 12.5 to 37.5 mg/kg, read-out: calculated ED50 for reduction of the seizure score from 5 to 3 or less) was ~22.5 mg/kg, the “% Seizure Activity” value ([1]; 1 mg/kg oral) was 93.3% and the “% Protection” value ([1]; 1 mg/kg oral) was 6.7%. For the same molecule, the “% Seizure Activity” value ([1]; 3 mg/kg oral) was 46.7%, the “% Protection” value ([1]; 3 mg/kg oral) was 53.3% and the “% Seizure Activity” value ([1]; 10 mg/kg oral) was 33.3%. For the same molecule, the “% Protection” value ([1]; 10 mg/kg oral) was 66.7%, the “% Seizure Activity” value ([1]; 100 mg/kg oral) was 0% and the “% Protection” value ([1]; 100 mg/kg oral) was 100%. For the same molecule, the ED50 ([1]; Rattus norvegicus, 1 h, oral, expression of Stage 5 seizures) was 4.2 mg/kg.
